Key:
[1] = Plasma Stability Test (IV dosing of prodrug, HPLC analysis of blood plasma); assay type: in vivo; conditions: dogs, IV at 2 mg/mL, HPLC analysis of blood plasma for 4 hours following dosing
Method: The prodrug (3Z)-3-[(3,5-dimethyl-1H-pyrrol-2-yl)-methylidene]-1-(1-pyrrolidinylmethyl)-1,3-dihydro-2H-indol-2-one was administered IV at 2 mg/mL to dogs. Levels of both prodrug and drug (3(Z)-3-[(3,5-dimethyl-1H-pyrrol-2-yl)-methylidene]-1,3-dihydro-2H-indol-2-one) were followed by HPLC analysis of blood plasma for 4 hours following dosing.

Structure (SMILES)	melting point [°C]	half-life for conversion of the prodrug to drug [1] [min]	prodrug converted into drug (from area under the curve of drug concentration vs. time) [1] [%]
Cc1cc(C)c(/C=C2\C(=O)N(COC(=O)CCC(=O)O)c3ccccc32)[nH]1	160 to 162	–	–
Cc1cc(C)c(/C=C2\C(=O)N(C(=O)CNC(=O)OCc3ccccc3)c3ccccc32)[nH]1	193 to 196	–	–
Cc1cc(C)c(/C=C2\C(=O)N(CN3CCCC3)c3ccccc32)[nH]1 [Example 14, (3Z)-3-[(3,5-dimethyl-1H-pyrrol-2-yl)-methylidene]-1-(1-pyrrolidinylmethyl)-1,3-dihydro-2H-indol-2-one]	–	7.3	80

Other lines, results leading:

melting point [°C]	half-life for conversion of the prodrug to drug [1] [min]	prodrug converted into drug (from area under the curve of drug concentration vs. time) [1] [%]	Structure (SMILES)
107 to 110	–	–	CC(=O)OC(C)N1C(=O)/C(=C\c2[nH]c(C)cc2C)c2ccccc21 (stereo not drawn)
200 to 202	–	–	Cc1cc(C)c(/C=C2\C(=O)N(CO)c3ccccc32)[nH]1
